Each block holds one molecule with its values, some of them ahead of it. Bridge positions count the residues as written; N and C are the ends. Peptide text beside a SMILES is read from it.
Experiments:
[1] = target: T1, CD28Ig (Homo sapiens, UniProt P10747); assay: BIACORE binding of CDR3 peptides; conditions: peptides cyclized and characterized as pools of 3-5, nd = non detectable binding, read-out: Binding Affinity, CD28Ig
T1 construct: human Ig (huIg) fusion partner
Description: (§1) Peptides corresponding to the entire CDR3 regions of anti-CD3 and […] mAbs were synthesized, and Tyr/Phe-Cysteine residues were added to both amino and carboxyl termini. Modifications of peptides were made by eliminating one amino acid of the CDR3 region at a time from the terminus. Peptide synthesis was carried out on solid phase by using Fmoc chemistry (HBTU/DIEA activation and TFA cleavage). Crude peptides were combined in a batch of 3-5 peptides and cyclized by air oxidation at pH 8.5. Crude cyclic peptides were purified on a reverse phase HPLC, lyophilized and characterized by analytical HPLC and mass spectroscopy.
(§2) BIACORE uses surface plasmon resonance (SPR) which occurs when surface plasmon waves are excited at a metal/liquid interface. Light is directed at, and reflected due to bimolecular interactions between analyte (in solution) and ligand (immobilized). CD3εδhuIg, CD3εεhuIg and CD28huIg were covalently immobilized on a carboxymethy dextran chip using EDC/NHS chemistry followed by blocking with ethanol amine. Peptides were dissolved in HBS buffer at pH 7.2 with or without 1% DMSO, and were allowed to pass over these fusion protein-immobilized surfaces. Non-specific binding was substrated by passing these peptides over a controlled surface prepared by immobilizing EDC/NHS alone followed by ethanolamine.

[2] = test system: CD4^+ T cells; assay: Proliferation of purified T cell subsets with immobilized antibodies; format: cell-based, human; conditions: antibodies immobilized on microtiter plates, 4 days
Description: (§3) T cells were isolated from peripheral blood by centrifugation on “FICOLL”, followed by separation into CD4^+ or CD8^+ subsets by depletion of monocytes, B cells, NK cells, and either CD4 or CD8 cells. Cell depletion was performed using mAbs to CD14, CD20, CD11b, and CD8 or CD4 followed by removal of antibody-bound cells using magnetic beads coated with anti-mouse IgG CD4^+ or CD8^+ T cells were >95% pure after the depletion step when analyzed by flow cytometry. Cells were cultured in antibody-coated microtiter plates at 5×10^4 for 4 days, and proliferation was measured by incorporation of ^3H-thymidine for the final 12 hours of culture. Microtiter plates contained immobilized antibodies as indicated, including the control, nonbinding L20 antibody in some wells to equalize the total protein concentration for immobilization. Antibodies were immobilized by incubation at 10 μg/ml each for 18 hr at 37° C., followed by removal of unbound protein by extensive washing.

[3] = test system: CD8^+ T cells; assay: as above; format: cell-based, human; conditions: antibodies immobilized on microtiter plates, 4 days
Description: as §3

[4] = target: T2, CD3ε δIg (Homo sapiens, UniProt P04234+P07766); assay: BIACORE binding of CDR3 peptides; conditions: peptides cyclized and characterized as pools of 3-5, CD3ε δhuIg impure mixture, nd = non detectable binding, read-out: Binding Affinity, CD3ε δIg
T2 construct: made in house; host or cells: COS-7 (transient, DEAE-dextran); purified on protein A-Sepharose
Description: as §1, §2

[5] = test system: G19-4 anti-CD3 mAb; assay: ELISA of CD3-Ig fusion proteins captured by immobilized anti-CD3 mAb; format: binding; conditions: up to 100 μg/ml fusion protein
Text: Transient expression in COS-7 cells was used to generate different CD3-Ig fusion proteins. The plasmids phCD3ε-Ig, and phCD3γ-Ig were transfected individually or in combinations of phCD3ε-Ig+phCD3δ-Ig and phCD3ε-Ig+phCD3γ-Ig into COS-7 by the DEAE-dextran method. Transfected cells were maintained in medium supplemented with a low concentration, 0.5%, FBS and insulin. Spent media were collected in three-day intervals up to three weeks post transfection. Fusion proteins were then purified from spent media by protein A-Sepharose chromatography. Fusion protein expression was confirmed by SDS-PAGE and ELISA using anti-CD3 mAb.
CD3-Ig fusion proteins were characterized by ELISA using a number of anti-CD3 mAbs including G19-4, OKT3, BC3, and 64.1 Anti-CD3 mAbs were immobilized to capture CD3-Ig. An antibody-horseradish peroxidase conjugate specific against human IgG […] was used to detect the binding of CD3-Ig to anti-CD3 mAbs. Like the control CD4-Ig, no binding of CD3δ-Ig to G19-4 was detectable even at 100 μg/ml of the fusion protein (FIG. 20). […] and […] saturated at 4 μg/ml and 20 μg/ml in this assay, respectively. […] In addition, binding affinities of the CD3-Ig fusion proteins to different anti-CD3 antibodies were measured by BIACORE, and the results are shown in Table IV. […]

T2 sequence (P07766 23-126): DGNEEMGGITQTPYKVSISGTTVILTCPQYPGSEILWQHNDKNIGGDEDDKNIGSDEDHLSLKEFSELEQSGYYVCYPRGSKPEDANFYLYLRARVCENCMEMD
T2 sequence (P04234 22-100): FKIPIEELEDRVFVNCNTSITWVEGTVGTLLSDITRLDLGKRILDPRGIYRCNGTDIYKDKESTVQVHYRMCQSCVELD
T1 sequence (P10747 19-152 limits assumed): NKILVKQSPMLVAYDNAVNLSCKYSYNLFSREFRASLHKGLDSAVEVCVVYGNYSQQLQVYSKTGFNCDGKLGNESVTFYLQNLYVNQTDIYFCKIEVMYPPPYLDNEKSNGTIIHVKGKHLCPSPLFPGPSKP

Molecule: YCGYSYYYSMDYCW [cyclized peptide derived from CDR3 region of an anti-CD3 or anti-CD28 mAb]
Kd [1]: 1 µM

Molecule: OKT-3: MAb anti-CD3, obtained from ATCC (ATCC CRL-8001)
Proliferation of CD4^+ T cells [2]: minimal
Proliferation of CD8^+ T cells [3]: minimal

Molecule: YCRSAYYDYDGIAYCW [cyclized peptide derived from CDR3 region of an anti-CD3 or anti-CD28 mAb]
Kd [4]: 7 µM
Kd [1]: 166 µM

Molecule: YCARDSDWYFDVCW [cyclized peptide derived from CDR3 region of an anti-CD3 or anti-CD28 mAb]
Kd [4]: 50 µM

B1: CD3γ-Ig: CD3γ extracellular domain fused to human IgG1 hinge-CH2-CH3 (protein)
chain: QSIKGNHLVKVYDYQEDGSVLLTCDAEAKNITWFKDGKMIGFLTEDKKKWNLGSNAKDPRGMYQCKGSQNKSKPLQVYYRMCQNCIELNAATIS
modifications: left off: a dimerising Fc or GST
notes: CD3γ extracellular domain fused to human IgG1 hinge-CH2-CH3
Binding of CD3-Ig fusion protein to G19-4 [5]: detectable

Further lines, results first:

Binding of CD3-Ig fusion protein to G19-4 [5]: detectable
Molecule: CD3ε-Ig: CD3ε extracellular domain fused to human IgG1 hinge-CH2-CH3

Kd [4]: 10 µM
Molecule: N[C@@H](Cc1ccc(O)cc1)C(=O)N[C@H]1CSSC[C@@H](C(=O)N[C@@H](Cc2ccc(O)cc2)C(=O)O)NC(=O)CNC(=O)[C@H](CC(=O)O)NC(=O)[C@H](Cc2ccc(O)cc2)NC(=O)[C@H](CC(=O)O)NC(=O)[C@H](Cc2ccc(O)cc2)NC1=O [YCYDYDGCY (SEQ ID NO:75)] (H-YCYDYDGCY-OH; disulfide 2-8; N-terminus and C-terminus assumed)

Kd [4]: 0.5 µM
Molecule: NCCCC[C@@H]1NC(=O)[C@H](Cc2c[nH]c3ccccc23)NC(=O)[C@H](CC(=O)O)NC(=O)[C@H](Cc2ccccc2)NC(=O)[C@@H](NC(=O)[C@@H](N)Cc2ccc(O)cc2)CSSC[C@@H](C(=O)N[C@@H](Cc2ccc(O)cc2)C(=O)O)NC(=O)[C@H](CC(N)=O)NC1=O [YCFDWKNCY (SEQ ID NO:80)] (H-YCFDWKNCY-OH; disulfide 2-8; N-terminus and C-terminus assumed)

— patent US20050261478A1, “Compositions and methods for regulating lymphocyte activation” (XCYTE Therapies, Inc., priority 1998, published 2005)
